± gives the standard deviation of the averaged measurements.
Columns and labels:
Assay in all cases: level (log10 ratio to DMSO vehicle control); higher = higher biomarker level / cell amount than vehicle control
[1] = compound: CCOC(=O)CC(=O)C(F)(F)C(F)(F)F [Ethyl pentafluoropropionyl acetate] (in DMSO)
Procedure: (§1)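 BioMAP Diversity Plus panel of 12 human primary cell co-culture systems (3C, 4H, LPS, SAg, BT, BF4T, BE3C, CASM3C, HDF3CGF, KF3CT, MyoF, Mphg). Compounds were added 1 h before stimulation and left for 24 h (MyoF 48 h; BT 72 h for soluble read-outs or 6 d for IgG). Biomarkers were read by ELISA, cytotoxicity by SRB, PBMC viability and proliferation by Alamar Blue. Each well value was divided by the mean of 8 DMSO control wells on the same plate and log10 transformed; duplicate blinded samples were tested at 4 concentrations.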

[2] = compound: NS(=O)(=O)C(F)(F)C(F)(F)C(F)(F)C(F)(F)C(F)(F)C(F)(F)C(F)(F)C(F)(F)F [Perfluorooctanesulfonamide] (in DMSO)
Procedure: as §1

Octafluoroadipic acid = compound: O=C(O)C(F)(F)C(F)(F)C(F)(F)C(F)(F)C(=O)O [Octafluoroadipic acid] (in DMSO)
Procedure: as §1

Perfluorononanoic acid = compound: O=C(O)C(F)(F)C(F)(F)C(F)(F)C(F)(F)C(F)(F)C(F)(F)C(F)(F)C(F)(F)F [Perfluorononanoic acid] (in DMSO)
Procedure: as §1

[3] = compound: O=C(O)C(F)(F)OC(F)(F)C(F)(F)OC(F)(F)C(F)(F)OC(F)(F)C(F)(F)C(F)(F)C(F)(F)F [Perfluoro-3,6,9-trioxatridecanoic acid] (in DMSO); conditions: 6700 nM
Procedure: as §1

[4] = compound: O=C(O)C(F)(OC(F)(F)C(F)(F)C(F)(F)F)C(F)(F)F [Ammonium perfluoro-2-methyl-3-oxahexanoate] (in Water)
Procedure: as §1

[5] = compound: O=C(O)CCC(F)(C(F)(F)F)C(F)(F)F [4,4-bis(Trifluoromethyl)-4-fluoropropanoic acid] (in DMSO)
Procedure: as §1

[6] = compound: O=S(=O)(O)CCC(F)(F)C(F)(F)C(F)(F)C(F)(F)C(F)(F)C(F)(F)C(F)(F)C(F)(F)F [8:2 Fluorotelomer sulfonic acid] (in DMSO)
Procedure: as §1

| Test System | level (log10) ([1]; 6700 nM) | level (log10) ([1]; 20000 nM) | level (log10) ([1]; 60000 nM) | level (log10) ([2]; 6700 nM) | level (log10) ([2]; 20000 nM) | level (log10) (Octafluoroadipic acid; 6700 nM) | level (log10) (Octafluoroadipic acid; 20000 nM) | level (log10) (Octafluoroadipic acid; 60000 nM) | level (log10) (Perfluorononanoic acid; 6700 nM) | level (log10) (Perfluorononanoic acid; 20000 nM) | level (log10) [3] | level (log10) ([4]; 6700 nM) | level (log10) ([4]; 20000 nM) | level (log10) ([4]; 60000 nM) | level (log10) ([5]; 6700 nM) | level (log10) ([5]; 20000 nM) | level (log10) ([5]; 60000 nM) | level (log10) ([6]; 6700 nM) | level (log10) ([6]; 20000 nM) | level (log10) ([6]; 60000 nM) |
| --- | --- | --- | --- | --- | --- | --- | --- | --- | --- | --- | --- | --- | --- | --- | --- | --- | --- | --- | --- | --- |
| BE3C:IL-1alpha | 0.0125 ± 0.03 | -0.011 ± 0.044 | 0.0285 ± 0.005 | -0.005 ± 0.023 | -0.066 ± 0.017 | 0.0155 ± 0.0064 | 0.009 ± 0.023 | -0.031 ± 0.0028 | -0.032 ± 0.024 | -0.0625 ± 0.023 | -0.469 ± 0.052 | -0.0215 ± 0.013 | -0.001 ± 0.0028 | -0.0085 ± 0.005 | 0.0065 ± 0.022 | -0.0105 ± 0.0078 | 0.007 ± 0.02 | 0.016 ± 0.027 | -0.0055 ± 0.0064 | -0.043 ± 0.037 |
| BF4T:CCL26/Eotaxin-3 | 0.014 ± 0.0014 | 0.003 ± 0.014 | 0.0015 ± 0.03 | -0.117 ± 0.017 | -0.169 ± 0.014 | 0.0055 ± 0.025 | -0.007 ± 0.042 | 0.009 ± 0.04 | -0.0345 ± 0.037 | -0.288 ± 0.0085 | -0.395 ± 0.018 | -0.128 ± 0.03 | -0.0995 ± 0.06 | -0.137 ± 0.03 | 0.028 ± 0.024 | 0.004 ± 0.0028 | 0.0185 ± 0.042 | -0.0635 ± 0.05 | -0.179 ± 0.05 | -0.203 ± 0.0099 |
| BF4T:MMP-3 | 0.0105 ± 0.029 | -0.012 ± 0.047 | -0.0025 ± 0.052 | 0.004 ± 0.024 | 0.0845 ± 0.028 | 0.0055 ± 0.033 | -0.0055 ± 0.035 | 0.0025 ± 0.022 | 0.0005 ± 0.035 | 0.015 ± 0.0071 | -0.0415 ± 0.064 | 0.0335 ± 0.047 | 0.018 ± 0.0057 | 0.048 ± 0.014 | 0.0295 ± 0.022 | 0.0285 ± 0.00071 | 0.031 ± 0.052 | -0.0095 ± 0.043 | 0.027 ± 0.034 | 0.0755 ± 0.0078 |
| LPS:CCL2/MCP-1 | -0.025 ± 0.0085 | -0.0345 ± 0.018 | -0.0125 ± 0.018 | -0.0035 ± 0.013 | 0.0165 ± 0.0021 | -0.0015 ± 0.044 | -0.0045 ± 0.026 | 0.0205 ± 0.0078 | -0.0035 ± 0.033 | 0.0165 ± 0.016 | -0.0325 ± 0.023 | 0.0325 ± 0.033 | -0.017 ± 0.023 | -0.001 ± 0.0014 | 0.024 ± 0.037 | 0 ± 0.014 | 0.0155 ± 0.07 | 0.0135 ± 0.023 | 0.016 ± 0.0028 | -0.055 ± 0.045 |
| 3C:HLA-DR | 0.019 ± 0.0099 | 0.0125 ± 0.054 | 0.01 ± 0.047 | -0.0115 ± 0.043 | -0.118 ± 0.082 | -0.007 ± 0.0099 | -0.004 ± 0.021 | 0.0035 ± 0.0078 | -0.024 ± 0.033 | 0.017 ± 0.021 | -0.018 ± 0.04 | 0.0075 ± 0.011 | 0.0175 ± 0.028 | 0.016 ± 0.0014 | -0.0125 ± 0.023 | -0.0085 ± 0.012 | -0.0065 ± 0.0035 | -0.0155 ± 0.012 | -0.011 ± 0.0071 | -0.011 ± 0.0085 |
| BT:Secreted IgG | 0.024 ± 0.014 | 0.025 ± 0.0071 | 0.013 ± 0.0014 | -0.018 ± 0.0085 | -0.141 ± 0.1 | 0.0285 ± 0.033 | 0.028 ± 0.027 | 0.0435 ± 0.011 | 0.0275 ± 0.021 | 0.0335 ± 0.026 | -0.0225 ± 0.0092 | -0.12 ± 0.07 | -0.113 ± 0.059 | -0.156 | 0.019 ± 0.017 | -0.053 ± 0.062 | 0.0025 ± 0.005 | 0.032 ± 0.0099 | -0.014 ± 0.031 | -0.025 ± 0.014 |
| BT:sIL-17F | 0.0355 ± 0.0092 | 0.0155 ± 0.0035 | -0.012 ± 0.093 | -0.0365 ± 0.084 | -0.0785 ± 0.11 | -0.027 ± 0.0028 | -0.009 ± 0.078 | 0.0275 ± 0.076 | -0.0305 ± 0.0064 | 0.002 ± 0.15 | 0.018 ± 0.027 | 0.111 ± 0.016 | 0.116 ± 0.012 | 0.0455 ± 0.012 | 0.064 ± 0.13 | 0.0385 ± 0.087 | -0.005 ± 0.0085 | -0.0295 ± 0.091 | 0.053 ± 0.0071 | 0.018 |
| 4H:CD106/VCAM-1 | -0.003 ± 0.034 | 0.03 ± 0.018 | 0.0215 ± 0.013 | 0.013 ± 0.034 | -0.0335 ± 0.044 | -0.003 ± 0.0028 | -0.007 ± 0.018 | -0.007 ± 0.017 | -0.0245 ± 0.032 | -0.029 ± 0.0071 | -0.023 ± 0.0085 | -0.0455 ± 0.005 | -0.0365 ± 0.018 | -0.037 ± 0.021 | -0.014 ± 0.0042 | -0.004 | -0.0205 ± 0.022 | -0.0065 ± 0.025 | -0.018 ± 0.0014 | -0.0375 ± 0.0021 |
| BE3C:CXCL8/IL-8 | 0.0095 ± 0.03 | 0.017 ± 0.021 | 0.032 ± 0.0014 | -0.123 ± 0.0099 | -0.192 ± 0.013 | 0.0325 ± 0.0092 | 0.0355 ± 0.021 | 0.058 ± 0.068 | -0.03 ± 0.0057 | -0.175 ± 0.0042 | -0.259 ± 0.0014 | -0.013 ± 0.071 | 0.0005 ± 0.011 | 0.0195 ± 0.011 | -0.0055 ± 0.011 | -0.025 ± 0.033 | -0.019 ± 0.033 | -0.0045 ± 0.022 | -0.06 ± 0.0014 | -0.134 ± 0.005 |
| LPS:SRB | 0.0015 ± 0.0021 | 0 ± 0.0028 | -0.004 ± 0.0085 | 0.009 ± 0.0057 | -0.0625 ± 0.0078 | 0.0015 ± 0.0064 | 0.004 ± 0.0085 | -0.0055 ± 0.0064 | -0.0065 ± 0.00071 | 0.0045 ± 0.0078 | 0.008 ± 0.0071 | -0.009 ± 0.0028 | -0.0075 ± 0.00071 | -0.009 ± 0.0014 | -0.0045 ± 0.0064 | -0.0035 ± 0.00071 | 0.0135 ± 0.0092 | -0.0085 ± 0.005 | -0.0095 ± 0.019 | -0.02 ± 0.018 |
| SAg:CCL2/MCP-1 | -0.0005 ± 0.011 | -0.0225 ± 0.0078 | 0.011 ± 0.0085 | -0.0125 ± 0.021 | 0.0075 ± 0.015 | -0.014 ± 0.02 | -0.0135 ± 0.0035 | 0.0015 ± 0.018 | -0.0015 ± 0.0035 | 0.0555 ± 0.013 | -0.0125 ± 0.018 | -0.0245 ± 0.04 | 0.004 ± 0.017 | 0.0305 ± 0.059 | 0 ± 0.033 | -0.0125 ± 0.00071 | -0.0125 ± 0.025 | -0.0035 ± 0.019 | 0 ± 0.0099 | -0.0025 ± 0.0078 |
| BF4T:CD90 | -0.009 ± 0.018 | -0.0015 ± 0.013 | -0.0135 ± 0.012 | -0.0275 ± 0.012 | -0.0585 ± 0.016 | 0.005 ± 0.0042 | -0.0075 ± 0.0035 | -0.006 | -0.0095 ± 0.0035 | -0.045 ± 0.0028 | 0.0045 ± 0.0021 | -0.0065 ± 0.011 | -0.015 ± 0.011 | -0.007 ± 0.024 | -0.0095 ± 0.026 | -0.0055 ± 0.019 | 0.0005 ± 0.0078 | -0.008 ± 0.0028 | -0.018 ± 0.0014 | -0.0355 ± 0.0092 |
| SAg:Proliferation | 0.001 ± 0.065 | -0.004 ± 0.025 | 0.0315 ± 0.047 | -0.031 ± 0.042 | -0.0445 ± 0.036 | -0.021 ± 0.016 | -0.0095 ± 0.0092 | -0.0065 ± 0.059 | 0.0075 ± 0.056 | 0.0035 ± 0.0092 | -0.0295 ± 0.042 | -0.0005 ± 0.028 | -0.043 ± 0.028 | -0.0265 ± 0.049 | 0.007 ± 0.051 | -0.03 ± 0.044 | 0.0375 ± 0.053 | -0.02 ± 0.054 | -0.0085 ± 0.011 | -0.0735 ± 0.0035 |
| BE3C:CD87/uPAR | 0.0145 ± 0.03 | -0.0045 ± 0.023 | 0.0065 ± 0.03 | -0.01 ± 0.0071 | -0.0025 ± 0.019 | -0.0115 ± 0.00071 | 0.0035 ± 0.00071 | 0.0125 ± 0.018 | 0.046 ± 0.013 | 0.0495 ± 0.019 | -0.48 ± 0.05 | 0.011 ± 0.034 | 0.0215 ± 0.0078 | 0.027 ± 0.0085 | 0.0005 ± 0.028 | -0.004 ± 0.044 | -0.01 ± 0.0028 | 0.0225 ± 0.0035 | 0.0135 ± 0.011 | -0.01 ± 0.031 |
